This note sets out measurements from patent US20140378408A1, “NUCLEOSIDE 5'-PHOSPHOROTHIOATE ANALOGUES AND USES THEREOF” (BAR-ILAN UNIVERSITY, an Israeli University, priority 2012, published 2014).

The structures appear in SMILES notation. Like-named read-outs stand apart in the source and are kept apart here.

One assay has as its target T1, human NPP1 (Homo sapiens, UniProt P22413).
T1 construct: made in house; host or cells: COS-7 cells (transfected; protein extract / cell lysate)
T1 sequence (P22413 1-925): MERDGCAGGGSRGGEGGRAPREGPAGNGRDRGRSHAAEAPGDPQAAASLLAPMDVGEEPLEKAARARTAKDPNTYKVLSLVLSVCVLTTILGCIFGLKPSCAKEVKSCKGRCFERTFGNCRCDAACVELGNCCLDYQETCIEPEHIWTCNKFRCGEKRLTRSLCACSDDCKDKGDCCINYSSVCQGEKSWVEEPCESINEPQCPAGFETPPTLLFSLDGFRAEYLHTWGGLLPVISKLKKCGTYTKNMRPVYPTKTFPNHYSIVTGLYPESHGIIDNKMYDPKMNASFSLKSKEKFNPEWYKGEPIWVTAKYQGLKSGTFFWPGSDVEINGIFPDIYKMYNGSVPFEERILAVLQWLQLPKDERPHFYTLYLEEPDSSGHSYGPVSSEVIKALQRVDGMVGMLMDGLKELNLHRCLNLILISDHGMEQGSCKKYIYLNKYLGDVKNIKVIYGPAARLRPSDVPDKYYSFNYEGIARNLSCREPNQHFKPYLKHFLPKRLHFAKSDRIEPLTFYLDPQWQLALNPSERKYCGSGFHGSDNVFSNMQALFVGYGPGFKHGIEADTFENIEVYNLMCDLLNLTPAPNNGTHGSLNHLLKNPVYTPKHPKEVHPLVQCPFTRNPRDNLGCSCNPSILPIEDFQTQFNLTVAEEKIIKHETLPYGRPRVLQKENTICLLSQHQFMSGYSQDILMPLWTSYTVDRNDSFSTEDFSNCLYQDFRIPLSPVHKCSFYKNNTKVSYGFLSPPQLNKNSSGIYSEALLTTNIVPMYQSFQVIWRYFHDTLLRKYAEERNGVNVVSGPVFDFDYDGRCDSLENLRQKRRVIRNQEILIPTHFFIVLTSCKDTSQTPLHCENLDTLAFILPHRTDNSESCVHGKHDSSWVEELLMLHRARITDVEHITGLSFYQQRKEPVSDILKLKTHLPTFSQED
Kind of assay: Inhibition of NPP1 activity. The assay is classed as biochemical. The conditions noted are these: Dixon and Cornish-Bowden methods.

The next assay has as its target T2, human P2Y1-R (Homo sapiens, UniProt P47900).
T2 construct: expressed in transfected cells; host or cells: 1321N1 astrocytoma cells
Description: [Ca^2+]i response of 1321N1 astrocytoma cells expressing P2Y1-R GFP. The assay is classed as cell-based. The settings on record: agonist; read-out: EC50 at the P2Y1 receptor. The procedure: GFP constructs of human P2Y2-R, P2Y1-R and P2Y11-R were stably expressed in 1321N1 astrocytoma cells, which lack endogenous expression of P2X- and P2Y-receptors. The respective cDNA of the receptor gene was cloned into a pEGFPN1 vector and after transfection, using FuGENE 6 Transfection Reagent (Roche Molecular Biochemicals, Mannheim, Germany), cells were selected with 0.5 mg/ml G418 (geneticine; Merck Chemicals, Darmstadt, Germany) and grown in DMEM supplemented with 10% serum (FCS), 100 U/ml penicillin and 100 U/ml streptomycin at 37° C. and 5% CO2. The expression and cell membrane localization of the respective P2Y receptors was confirmed through the analysis of the GFP fluorescence. The functionality of the expressed GFP-labeled receptor in cells was verified by recording a change of [Ca^2+]i after stimulation with the appropriate receptor agonist.
1321N1 astrocytoma cells transfected with the respective plasmid for P2Y-R-GFP expression plated on coverslips (22 mm diameter) and grown to approximately 80% density, were incubated with 2 μM fura 2/AM and 0.02% pluronic acid in Na-HBS buffer (Hepes buffered saline: 145 mM NaCl, 5.4 mM KCl, 1.8 mM CaCl2, 1 mM MgCl2, 25 mM glucose, 20 mM Hepes/Tris pH 7.4) for 30 min at 37° C. The cells were superfused (1 ml/min, 37° C.) with different concentrations of nucleotide in Na-HBS buffer. The nucleotide-induced change of [Ca^2+] was monitored by detecting the fluorescence intensities with excitations at 340 nm and 380 nm. Only GFP-labeled cells were analyzed. Microsoft Excel (Microsoft Corp., Redmond, Wash., USA) and SigmaPlot (SPSS Inc., Chicago, Ill., USA) were used to derive the concentration-response curves and EC50 values from the average response amplitudes obtained in at least three independent experiments (Ecke et al., 2006; Ecke et al., 2008). Only cells with a clear GFP-signal and with the typical calcium response kinetics upon agonist pulse application were included in the data analysis. The nucleotide induced change of [Ca^2+]i was monitored by detecting the respective emission intensity of fura 2/AM at 510 nm with 340 nm and 380 nm excitations (Ubl et al., 1998). The average maximal amplitude of the responses and the respective standard errors were calculated from ratio of the fura 2/AM. The GFP-tagged P2Y receptors are suitable for pharmacological and physiological studies, as previously reported (Tulapurkar et al., 2004; Tulapurkar et al., 2006; Zylberg et al., 2007).

For the next assay, the target named is T3, human NPP3 (Homo sapiens, UniProt O14638).
T3 construct: made in house; host or cells: COS-7 cells (transfected; protein extract / cell lysate)
T3 sequence (O14638 1-875): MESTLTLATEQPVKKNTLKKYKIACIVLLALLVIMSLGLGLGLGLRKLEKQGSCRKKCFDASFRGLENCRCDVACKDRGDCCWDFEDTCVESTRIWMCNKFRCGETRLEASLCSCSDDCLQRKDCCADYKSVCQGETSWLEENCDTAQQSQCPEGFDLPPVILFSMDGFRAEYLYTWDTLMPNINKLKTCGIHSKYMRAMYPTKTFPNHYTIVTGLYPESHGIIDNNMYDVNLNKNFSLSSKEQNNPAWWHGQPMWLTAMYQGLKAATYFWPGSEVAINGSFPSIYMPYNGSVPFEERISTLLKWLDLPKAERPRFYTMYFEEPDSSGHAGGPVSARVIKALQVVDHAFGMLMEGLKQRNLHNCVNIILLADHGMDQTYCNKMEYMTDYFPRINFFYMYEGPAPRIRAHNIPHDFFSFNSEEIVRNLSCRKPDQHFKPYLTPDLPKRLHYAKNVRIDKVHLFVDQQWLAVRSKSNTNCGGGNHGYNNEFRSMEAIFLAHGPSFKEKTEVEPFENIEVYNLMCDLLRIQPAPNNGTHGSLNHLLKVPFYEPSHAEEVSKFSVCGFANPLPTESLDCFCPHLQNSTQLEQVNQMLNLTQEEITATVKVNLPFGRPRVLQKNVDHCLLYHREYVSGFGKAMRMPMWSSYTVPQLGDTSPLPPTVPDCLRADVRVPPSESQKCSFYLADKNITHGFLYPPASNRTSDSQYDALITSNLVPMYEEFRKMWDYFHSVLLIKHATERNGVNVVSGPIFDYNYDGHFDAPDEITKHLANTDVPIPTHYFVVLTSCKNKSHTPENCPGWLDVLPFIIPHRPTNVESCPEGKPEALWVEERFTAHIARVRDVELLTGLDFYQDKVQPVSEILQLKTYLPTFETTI
Kind of assay: Inhibition of NPP3 activity. The settings on record: read-out: inhibition of NPP3 activity. The assay is classed as biochemical. The procedure:
Pnp-TMP hydrolyses were carried out at 37° C. in 0.2 ml of the following incubation mixture: in mM, 1 CaCl2, 130 NaCl, 5 KCl and 50 Tris, pH 8.5, with or without the analogue tested and/or substrates. Substrates and analogues were all used at the final concentration of 100 μM. […] For pnp-TMP hydrolysis, the production of para-nitro-phenol was measured at […], 15 min after the initiation of the reaction.
The samples were centrifuged for 5 min at 13,000×g. Supernatants were neutralized with 1 M KOH (Fisher Scientific, Ottawa, ON, Canada) at 4° C. and centrifuged for 5 min at 13,000×g.

The test system of a further assay is cortical neurons. Kind of assay: Neuroprotection of cultured cortical neurons exposed to FeSO4 or FeSO4/H2O2. The assay is classed as cell-based. The settings on record: Table 2, neuroprotection of primary neurons exposed to FeSO4, read-out: IC50. How it is done:
FIGS. 10A-10B show the neuroprotective effect of ATP-γ-S and GDP-β-S (0.2-200 μM, t=24 h) as evaluated by MTT production in cortical neurons exposed for 24 h to either FeSO4 at final concentration of 3 μM (10A); or both FeSO4 (3 μM) and H2O2 (100 μM) (10B). The results shown are the mean±SEM of three independent experiments in quadruplicate.
Cultured cortical neurons in 96-well plates were treated with different concentrations of FeSO4, or hydrogen peroxide and FeSO4, for 24 h at 37° C. Following exposure to various insults, the cells were treated with ATP-γ-S and GDP-β-S as described. Cells were subsequently incubated for a further 18-24 h as indicated before being assessed for viability measures. Neurons were treated with ATP-γ-S and GDP-β-S at three concentrations ([…]) simultaneously with 1.5, 3 or 6 μM FeSO4 for 24 h. Following 24 h incubation in the presence of both FeSO4 and ATP-γ-S and GDP-β-S cell viability measures were assessed by XTT assay. All experiments were performed in triplicate.
FeSO4 induced a concentration-dependent decrease in cell viability as assessed by XTT assay and morphological assessment following 24 h of exposure (FIG. 9). The neuroprotective effect of ATP-γ-S and GDP-β-S (due to iron chelation) was evaluated in cortical neurons exposed to FeSO4 for 24 h (FIG. 10).

The test system of another assay is PC12 cells. Kind of assay: Inhibition of Fe(II)-induced ROS formation in PC12 cells (DCFH-DA). The assay is classed as cell-based. The conditions noted are these: PC12 cells, FeSO4 0.16 μM, 1 h, DCFH-DA; read-out: IC50 inhibition of ROS formation. How it is done: In this study, nucleoside 5′-phosphorothioate analogues were explored as inhibitors of Fe(II)-induced oxidative stress in PC12 cells used as a neuronal model. Reduction of ROS production in PC12 cells by each one of the tested analogues was measured by DCFH-DA, a radical sensitive indicator. After DCFH-DA was removed, the tested analogue was added to the cells at a final concentration of 0.2-200 μM. Oxidation was initiated by the addition of FeSO4 (0.16 μM) to the wells. The plates were incubated for 1 h at 37° C., during which the absorbance was read by a Tecan fluorometer at 485/530 nm.

Another assay addresses T4, Aβ28-Cu^+ complex (Homo sapiens, UniProt P05067).
T4 construct: we first studied Aβ28, as a more soluble fragment of Aβ40; purchased Sigma-Aldrich
Description: Titration of Aβ28-Cu^+ complex by chelators monitored by 1H-NMR. The conditions noted are these: 0.8 mM Aβ28-Cu^+, pD 7; for effect on Aβ28-Cu^+ 1H-NMR spectrum: 6 eq chelator.

A short description of assay [1]: ESR OH radical assay, Fe^2+/H2O2 Fenton system. The settings on record: N/A = minimal radical production exceeds 10%.

T4 sequence (P05067 672-699 limits assumed, one chain of several): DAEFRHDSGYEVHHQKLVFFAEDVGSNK
T2 sequence (P47900 whole entry): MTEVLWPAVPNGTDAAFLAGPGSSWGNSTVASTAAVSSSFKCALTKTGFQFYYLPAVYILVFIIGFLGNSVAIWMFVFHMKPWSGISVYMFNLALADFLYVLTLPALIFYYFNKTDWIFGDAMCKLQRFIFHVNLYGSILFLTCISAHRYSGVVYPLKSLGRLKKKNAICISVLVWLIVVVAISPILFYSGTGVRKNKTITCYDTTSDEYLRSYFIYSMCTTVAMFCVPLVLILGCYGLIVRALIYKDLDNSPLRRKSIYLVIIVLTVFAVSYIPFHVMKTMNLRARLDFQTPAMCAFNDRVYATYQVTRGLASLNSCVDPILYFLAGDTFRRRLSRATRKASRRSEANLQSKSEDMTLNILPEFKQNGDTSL

As usually defined, the EC50 is the concentration that produces a half-maximal response. Broadly, the inhibition is the percentage by which the read-out fell short of the control. As for `Nc1ncnc2c1ncn2C1OC(COP(O)(=S)OP(=O)(O)CP(=O)(O)O)C(O)C1O` (stereo not drawn) [APPCP-α-S, adenosine 5′-[Pα-thio]-β,γ-methylenetriphosphate], the type of inhibition entry on human NPP1 is on record as “mixed type inhibition, predominantly competitive”. Besides, at human P2Y1-R, the EC50 is greater than 10 µM. Besides, at human NPP3, the inhibition at 100 µM lay within 23 to 43%.
What is called IC50 is the concentration at which inhibition is half-maximal. As for `Nc1nc2c(ncn2[C@@H]2O[C@H](COP(=O)(O)OP(=O)(O)O)[C@@H](O)[C@H]2O)c(=O)[nH]1` [GDP, gunosine diphosphate], the IC50 in the assay on cortical neurons was 21 ± 3.1 µM.
Turning to `Nc1nc2c(ncn2[C@@H]2O[C@H](COP(=O)(O)OP(=O)(O)OP(O)(O)=S)[C@@H](O)[C@H]2O)c(=O)[nH]1` [GTP-γ-S, guanosine 5′-[γ-thio]triphosphate], the IC50 worked out at 5 µM with PC12 cells and 0.04 ± 0.01 µM in the assay on cortical neurons. Further, at Aβ28-Cu^+ complex, the “equivalents at which the spectrum resembled that of pure Aβ28” value was 3.2 eq.
Consider `O=P([O-])([O-])OP(=O)([O-])OP(=O)([O-])[O-].[Na+].[Na+].[Na+].[Na+].[Na+]` [triphosphate, sodium triphosphate], for which the “effect on Aβ28-Cu^+ 1H-NMR spectrum” value on Aβ28-Cu^+ complex is reported as “showed only Phe peaks reappearances without any His signals”.
In general, IC90 refers to the point of the concentration-response curve where the effect stands at 90%. Higher therefore signals a need for much substance. With `N[C@@H](CCC(=O)N[C@@H](CS)C(=O)NCC(=O)O)C(=O)O` [GSH, glutathione], the IC90 in assay [1] came to 491 ± 5 µM.
Take `Cc1c(C)c2c(c(C)c1O)CCC(C)(C(=O)O)O2` (centres unmarked) [Trolox]: the IC50 in the assay on cortical neurons (Cortical neurone) was determined as 23 ± 3.1 µM.
On to `[Na+].[Na+].[Na+].[O-]P([O-])([O-])=S` [Thiophosphate, trisodiumthiophosphate], for which the “effect on Aβ28-Cu^+ 1H-NMR spectrum” value on Aβ28-Cu^+ complex is on record as “significant sharpening of the Aβ28 spectrum”.
Turning to `Nc1nc2c(ncn2[C@@H]2O[C@H](COP(=O)(O)OP(=O)(O)OP(=O)(O)O)[C@@H](O)[C@H]2O)c(=O)[nH]1` [GTP, guanosine triphosphate], the IC50 with cortical neurons (Cortical neurone) was determined as 32 ± 2.3 µM.
Regarding `O=C(O)CC(O)(CC(=O)O)C(=O)O` [Citrate], the IC50 in the assay with cortical neurons (Cortical neurone) stood at 25 ± 3.3 µM.
In the case of `Nc1ncnc2c1ncn2[C@@H]1O[C@H](COP(=O)(O)OP(=O)(O)O)[C@@H](O)[C@H]1O` [ADP, adenosine diphosphate], the IC50 with cortical neurons (Cortical neurone) worked out at 19 ± 1.9 µM.
